From patent US10640497B2, “Microbiocidal oxadiazole derivatives” (SYNGENTA PARTICIPATIONS AG, priority 2015, dated 2020)

Assays:
[1] = tested on: Puccinia recondita f. sp. tritici; test: Fungicidal activity against Puccinia recondita f. sp. tritici, wheat, leaf disc preventative (brown rust); assay type: in vivo; conditions: foliar, wheat leaf segments, preventative (inoculated 1 day after application), 7-9 days after application, compared to untreated control
Experimental: (§1) Leaf disks or leaf segments of various plant species are cut from plants grown in a greenhouse. The cut leaf disks or segments are placed in multiwell plates (24-well format) onto water agar. The leaf disks are sprayed with a test solution before (preventative) or after (curative) inoculation. Compounds to be tested are prepared as DMSO solutions (max. 10 mg/ml) which are diluted to the appropriate concentration with 0.025% Tween20 just before spraying. The inoculated leaf disks or segments are incubated under defined conditions (temperature, relative humidity, light, etc.) according to the respective test system. A single evaluation of disease level is carried out 3 to 14 days after inoculation, depending on the pathosystem. Percent disease control relative to the untreated check leaf disks or segments is then calculated. Wheat leaf segments cv. Kanzler are placed on agar in multiwell plates (24-well format) and sprayed with the formulated test compound diluted in water. The leaf segments are inoculated with a spore suspension of the fungus 1 day after application. The inoculated leaf segments are incubated at 19° C. and 75% rh under a light regime of 12 h light/12 h darkness in a climate cabinet and the activity of a compound is assessed as percent disease control compared to untreated when an appropriate level of disease damage appears in untreated check leaf segments (7-9 days after application).

[2] = tested on: Puccinia recondita f. sp. tritici; test: Fungicidal activity against Puccinia recondita f. sp. tritici, wheat, leaf disc curative (brown rust); assay type: in vivo; conditions: foliar, 144 h, wheat leaf segments, curative (applied 1 day after inoculation), 6-8 days after application, compared to untreated control
Experimental: as §1, with “plates (24-well format). The leaf” for “plates (24-well format) and sprayed with the formulated test compound diluted in water. The leaf”, “of the fungus. Plates are stored in darkness at 19° C. and 75% rh. The formulated test compound diluted in water is applied 1 day” for “of the fungus 1 day”, “day after inoculation. The leaf” for “day after application. The inoculated”, “inoculation. The leaf segments” for “application. The inoculated leaf segments”, “leaf segments (6-8 days after” for “leaf segments (7-9 days after”

[3] = tested on: Glomerella lagenarium (Colletotrichum lagenarium); test: Fungicidal activity against Glomerella lagenarium (Colletotrichum lagenarium), liquid culture, cucumber, preventative (anthracnose); assay type: cell-based; conditions: Colletotrichum orbiculare, liquid culture (PDB), growth inhibition measured photometrically 3-4 days after application, compared to untreated control
Experimental: Mycelia fragments or conidia suspensions of a fungus, prepared either freshly from liquid cultures of the fungus or from cryogenic storage, are directly mixed into nutrient broth. DMSO solutions of the test compound (max. 10 mg/ml) is diluted with 0.025% Tween20 by a factor of 50 and 10 μl of this solution is pipetted into a microtiter plate (96-well format). The nutrient broth containing the fungal spores/mycelia fragments is then added to give an end concentration of the tested compound. The test plates are incubated in the dark at 24° C. and 96% relative humidity. The inhibition of fungal growth is determined photometrically after 2 to 7 days, depending on the pathosystem, and percent antifungal activity relative to the untreated check is calculated. Conidia of the fungus from cryogenic storage are directly mixed into nutrient broth (PDB potato dextrose broth). After placing a (DMSO) solution of test compound into a microtiter plate (96-well format), the nutrient broth containing the fungal spores is added. The test plates are incubated at 24° C. and the inhibition of growth is measured photometrically 3-4 days after application.

[4] = tested on: Phakopsora pachyrhizi; test: Fungicidal activity against Phakopsora pachyrhizi, soybean, leaf disc preventative (Asian soybean rust); assay type: in vivo; conditions: foliar, 288 h, 12-14 days after application, compared to untreated control
Experimental: Leaf disks or leaf segments of various plant species are cut from plants grown in a greenhouse. The cut leaf disks or segments are placed in multiwell plates (24-well format) onto water agar. The leaf disks are sprayed with a test solution before (preventative) or after (curative) inoculation. Compounds to be tested are prepared as DMSO solutions (max. 10 mg/ml) which are diluted to the appropriate concentration with 0.025% Tween20 just before spraying. The inoculated leaf disks or segments are incubated under defined conditions (temperature, relative humidity, light, etc.) according to the respective test system. A single evaluation of disease level is carried out 3 to 14 days after inoculation, depending on the pathosystem. Percent disease control relative to the untreated check leaf disks or segments is then calculated. Soybean leaf disks are placed on water agar in multiwell plates (24-well format) and sprayed with the formulated test compound diluted in water. One day after application leaf discs are inoculated by spraying a spore suspension on the lower leaf surface. After an incubation period in a climate cabinet of 24-36 hours in darkness at 20° C. and 75% rh leaf disc are kept at 20° C. with 12 h light/day and 75% rh. The activity of a compound is assessed as percent disease control compared to untreated when an appropriate level of disease damage appears in untreated check leaf disks (12-14 days after application).

CC1(C)CC(=O)N(Cc2ccc(-c3noc(C(F)(F)F)n3)cc2)O1 [Compound A-6, 5,5-dimethyl-2-[[4-[5-(trifluoromethyl)-1,2,4-oxadiazol-3-yl]phenyl]methyl]isoxazolidin-3-one]
≥ 80%: pest or weed control at 200 ppm [1] | pest or weed control at 200 ppm [2] | inhibition of growth at 20 ppm [3] | pest or weed control at 200 ppm [4]

CC1CC(=O)N(Cc2ccc(-c3noc(C(F)(F)F)n3)cc2)C1 (stereo not drawn) [Compound A-8, 4-methyl-1-[[4-[5-(trifluoromethyl)-1,2,4-oxadiazol-3-yl]phenyl]methyl]pyrrolidin-2-one]
≥ 80%: pest or weed control at 200 ppm [1] | pest or weed control at 200 ppm [2] | inhibition of growth at 20 ppm [3] | pest or weed control at 200 ppm [4]

CC1CCCN(Cc2ccc(-c3noc(C(F)(F)F)n3)cc2)C1=O (stereo not drawn) [Compound A-10, 3-methyl-1-[[4-[5-(trifluoromethyl)-1,2,4-oxadiazol-3-yl]phenyl]methyl]piperidin-2-one]
≥ 80%: pest or weed control at 200 ppm [1] | pest or weed control at 200 ppm [2] | inhibition of growth at 20 ppm [3] | pest or weed control at 200 ppm [4]

CC1(C)CC(=O)N(Cc2ccc(-c3noc(C(F)(F)F)n3)cc2)C(=O)C1 [Compound A-11, 4,4-dimethyl-1-[[4-[5-(trifluoromethyl)-1,2,4-oxadiazol-3-yl]phenyl]methyl]piperidine-2,6-dione]
≥ 80%: pest or weed control at 200 ppm [1] | pest or weed control at 200 ppm [2] | inhibition of growth at 20 ppm [3] | pest or weed control at 200 ppm [4]

O=C1CCCCN1Cc1ccc(-c2noc(C(F)(F)F)n2)cn1 [Compound A-12, 1-[[5-[5-(trifluoromethyl)-1,2,4-oxadiazol-3-yl]-2-pyridyl]methyl]piperidin-2-one]
≥ 80%: pest or weed control at 200 ppm [1] | pest or weed control at 200 ppm [2] | inhibition of growth at 20 ppm [3] | pest or weed control at 200 ppm [4]

CC1CCC(=O)N1Cc1ccc(-c2noc(C(F)(F)F)n2)cc1 (stereo not drawn) [Compound A-13, 5-methyl-1-[[4-[5-(trifluoromethyl)-1,2,4-oxadiazol-3-yl]phenyl]methyl]pyrrolidin-2-one]
≥ 80%: pest or weed control at 200 ppm [1] | pest or weed control at 200 ppm [2] | inhibition of growth at 20 ppm [3] | pest or weed control at 200 ppm [4]

CC1CCCC(=O)N1Cc1ccc(-c2noc(C(F)(F)F)n2)cc1 (stereo not drawn) [Compound A-14, 6-methyl-1-[[4-[5-(trifluoromethyl)-1,2,4-oxadiazol-3-yl]phenyl]methyl]piperidin-2-one]
≥ 80%: pest or weed control at 200 ppm [1] | pest or weed control at 200 ppm [2] | inhibition of growth at 20 ppm [3] | pest or weed control at 200 ppm [4]

O=C1C2CCC(CC2)N1Cc1ccc(-c2noc(C(F)(F)F)n2)cc1 [Compound A-15, 3-[[4-[5-(trifluoromethyl)-1,2,4-oxadiazol-3-yl]phenyl]methyl]-3-azabicyclo[2.2.2]octan-2-one]
≥ 80%: pest or weed control at 200 ppm [1] | pest or weed control at 200 ppm [2] | inhibition of growth at 20 ppm [3] | pest or weed control at 200 ppm [4]

CC1(C)CCCN(Cc2ccc(-c3noc(C(F)(F)F)n3)cc2)C1=O [Compound A-16, 3,3-dimethyl-1-[[4-[5-(trifluoromethyl)-1,2,4-oxadiazol-3-yl]phenyl]methyl]piperidin-2-one]
≥ 80%: pest or weed control at 200 ppm [1] | pest or weed control at 200 ppm [2] | inhibition of growth at 20 ppm [3] | pest or weed control at 200 ppm [4]

CC1CCN(Cc2ccc(-c3noc(C(F)(F)F)n3)cc2)C(=O)C1 (stereo not drawn) [Compound A-17, 4-methyl-1-[[4-[5-(trifluoromethyl)-1,2,4-oxadiazol-3-yl]phenyl]methyl]piperidin-2-one]
≥ 80%: pest or weed control at 200 ppm [1] | pest or weed control at 200 ppm [2] | inhibition of growth at 20 ppm [3] | pest or weed control at 200 ppm [4]

CC1CCC(=O)N(Cc2ccc(-c3noc(C(F)(F)F)n3)cc2)C1 (stereo not drawn) [Compound A-18, 5-methyl-1-[[4-[5-(trifluoromethyl)-1,2,4-oxadiazol-3-yl]phenyl]methyl]piperidin-2-one]
≥ 80%: pest or weed control at 200 ppm [1] | pest or weed control at 200 ppm [2] | inhibition of growth at 20 ppm [3] | pest or weed control at 200 ppm [4]

COC1CCCN(Cc2ccc(-c3noc(C(F)(F)F)n3)cc2)C1=O (stereo not drawn) [Compound A-19, 3-methoxy-1-[[4-[5-(trifluoromethyl)-1,2,4-oxadiazol-3-yl]phenyl]methyl]piperidin-2-one]
≥ 80%: pest or weed control at 200 ppm [1] | pest or weed control at 200 ppm [2] | inhibition of growth at 20 ppm [3] | pest or weed control at 200 ppm [4]

O=C1CC(C(F)(F)F)N1Cc1ccc(-c2noc(C(F)(F)F)n2)cc1 (stereo not drawn) [Compound A-20, 4-(trifluoromethyl)-1-[[4-[5-(trifluoromethyl)-1,2,4-oxadiazol-3-yl]phenyl]methyl]azetidin-2-one]
≥ 80%: pest or weed control at 200 ppm [1] | pest or weed control at 200 ppm [2] | inhibition of growth at 20 ppm [3] | pest or weed control at 200 ppm [4]

O=C1CCC(C(F)F)N1Cc1ccc(-c2noc(C(F)(F)F)n2)cc1 (stereo not drawn) [Compound A-21, 5-(difluoromethyl)-1-[[4-[5-(trifluoromethyl)-1,2,4-oxadiazol-3-yl]phenyl]methyl]pyrrolidin-2-one]
≥ 80%: pest or weed control at 200 ppm [1] | pest or weed control at 200 ppm [2] | inhibition of growth at 20 ppm [3] | pest or weed control at 200 ppm [4]

O=C1CCN1Cc1ccc(-c2noc(C(F)(F)F)n2)cc1 [Compound A-23, 1-[[4-[5-(trifluoromethyl)-1,2,4-oxadiazol-3-yl]phenyl]methyl]azetidin-2-one]
≥ 80%: pest or weed control at 200 ppm [1] | pest or weed control at 200 ppm [2] | inhibition of growth at 20 ppm [3] | pest or weed control at 200 ppm [4]
